Experimental data published in patent publication US8791143B2, “Anthranilic diamide derivatives having cyclic side-chains” (priority 2010, dated 2014).
Read-outs that look alike come from different tables or passages of the source.

Legend:
[1] = test system: caterpillars of the armyworm (Spodoptera frugiperda); assay: Spodoptera frugiperda test (SPODFR spray treatment); type: in vivo; details: Spodoptera frugiperda, 168 h, read-out: activity in % (caterpillars killed)
Boophilus microplus = Boophilus microplus test (BOOPMI injection); type: in vivo; details: Rhipicephalus microplus, 168 h; 20 μg/animal, injection into the abdomen, after 7 days; read-out: activity in % (no fertile eggs laid)
Experimental: (§1) Solvent: dimethyl sulphoxide
The active compound solution is injected into the abdomen (Boophilus microplus), and the animals are transferred into dishes and stored in a climate-controlled room.
The activity is assessed by […] of fertile eggs. 100% means that none of the ticks has laid any fertile eggs.

[2] = test system: larvae of the mustard beetle (Phaedon cochleariae); assay: Phaedon test (PHAECO spray treatment); details: Phaedon cochleariae, 168 h, read-out: activity in % (beetle larvae killed)
Lucilia cuprina larvae = assay: Lucilia cuprina test (LUCICU); type: in vivo; details: 1152 h, read-out: activity (kill in %)
Experimental: as §1
Vessels containing horse meat treated with the active ingredient preparation of the desired concentration are populated with about 20 Lucilia cuprina larvae.
(§2) After 48 days, the kill in % is determined.

[3] = log P by HPLC on reversed-phase columns (EEC Directive 79/831 Annex V.A8); type: physicochemical; details: for log P (second value after the slash): pH 2.7
[4] = test system: green peach aphid (Myzus persicae); assay: Myzus test (MYZUPE spray treatment); type: in vivo; details: Myzus persicae, 144 h, read-out: activity in % (aphids killed)
adult Musca domestica = assay: Musca domestica test (MUSCDO); type: in vivo; details: 1152 h, 20 ppm, after 48 days, read-out: activity (kill in %)
Experimental: as §1
Vessels containing a sponge treated with the active compound preparation of the desired concentration are populated with adult Musca domestica.
as §2

[5] = application rate 500 g/ha, after 7 days
[6] = reversed-phase C18 HPLC column, pH 2.7, HPLC reversed-phase C18, acidic range pH 2.7 (HCOOH), only or first value of the cell, read-out: log P
[7] = application rate 100 g/ha, after 7 days
[8] = application rate 100 g/ha, after 6 days

chromatographic logP [3, 6] | SMILES | pest or weed control at 100 g/ha [1] | pest or weed control at 100 g/ha [2] | chromatographic logP ([3]; pH 2.7, log P) | pest or weed control at 100 g/ha [4] | pest or weed control at 100 g/ha [1, 7] | further results
 | Cc1cc(Cl)cc(C(=O)NC2COC2)c1NC(=O)c1cc(Cn2cc(Br)c(C(F)(F)F)n2)nn1-c1ncccc1Cl [Example 24] | 100% | 100% | 3.2 |  |  | pest or weed control at 0.02 mg (Boophilus microplus): 100%; pest or weed control at 100 ppm (Lucilia cuprina larvae): 100%
2.03 | Cc1cc(Cl)cc(C(=O)NC2CCN(Cc3ccccc3)C2)c1NC(=O)c1cc(Cn2nnc(C(F)(F)F)n2)nn1-c1ncccc1Cl (stereo not drawn) [Example 31] |  |  |  |  |  | pest or weed control at 500 g/ha [1, 5]: 100%; pest or weed control at 0.02 mg (Boophilus microplus): 100%; pest or weed control at 500 g/ha [2]: 100%; pest or weed control at 500 g/ha ([4]; application rate 500 g/ha, after 6 days): 100%; pest or weed control at 100 ppm (Lucilia cuprina larvae; 100 ppm, after 48 days): 100%
2.3 | Cc1cc(Cl)cc(C(=O)NC2CCN(Cc3ccccc3)C2)c1NC(=O)c1cc(Cn2nnc(C(F)(F)C(F)(F)F)n2)nn1-c1ncccc1Cl (stereo not drawn) [Example 33] |  |  |  |  |  | pest or weed control at 500 g/ha [1, 5]: 100%; pest or weed control at 0.02 mg (Boophilus microplus): 100%; pest or weed control at 500 g/ha [2]: 100%; pest or weed control at 100 ppm (Lucilia cuprina larvae; 100 ppm, after 48 days): 100%
 | Cc1cc(C#N)cc(C(=O)NC2CCSC2=O)c1NC(=O)c1cc(Cn2nnc(C(F)(F)F)n2)nn1-c1ncccc1Cl (stereo not drawn) [Example 39] |  |  | 2.89 |  |  | pest or weed control at 500 g/ha [1]: 100%; pest or weed control at 500 g/ha [2]: 100%; pest or weed control at 500 g/ha [4]: 100%; log P (second value after the slash) [3]: 2.57
3.25 | Cc1cc(C#N)cc(C(=O)NC2CCSC2=O)c1NC(=O)c1cc(Cn2nnc(C(F)(F)C(F)(F)F)n2)nn1-c1ncccc1Cl (stereo not drawn) [Example 40] |  |  |  |  |  | pest or weed control at 500 g/ha [1, 5]: 100%; pest or weed control at 0.02 mg (Boophilus microplus): 100%; pest or weed control at 500 g/ha [2]: 100%; pest or weed control at 100 ppm (Lucilia cuprina larvae; 100 ppm, after 48 days): 100%
 | Cc1cc(Cl)cc(C(=O)NN2CCN(C)C2=O)c1NC(=O)c1cc(Cn2nnc(C(F)(F)F)n2)nn1-c1ncccc1Cl [Example 41] | 100% | 100% | 2.64 | 80% |  | 
 | Cc1cc(Cl)cc(C(=O)N[C@@H]2CCOC2=O)c1NC(=O)c1cc(Cn2nnc(C(F)(F)C(F)(F)F)n2)nn1-c1ncccc1Cl [Example 43] | 100% | 100% | 3.21 |  |  | pest or weed control at 0.02 mg (Boophilus microplus): 100%; pest or weed control at 500 g/ha [4]: 100%; pest or weed control at 100 ppm (Lucilia cuprina larvae): 100%; log P (second value after the slash) [3]: 2.92
 | Cc1cc(Cl)cc(C(=O)NC2=NCCS2)c1NC(=O)c1cc(Cn2nnc(C(F)(F)F)n2)nn1-c1ncccc1Cl [Example 45] | 100% | 100% | 3.5 | 100% |  | log P (second value after the slash) [3]: 3.14
 | Cc1cc(C#N)cc(C(=O)NC2=NCCS2)c1NC(=O)c1cc(Cn2nnc(C(F)(F)F)n2)nn1-c1ncccc1Cl [Example 46] | 100% | 100% | 3.11 | 100% |  | log P (second value after the slash) [3]: 2.75
 | Cc1cc(C#N)cc(C(=O)NC2=NCCS2)c1NC(=O)c1cc(Cn2nnc(C(F)(F)C(F)(F)F)n2)nn1-c1ncccc1Cl [Example 48] | 100% | 100% | 3.49 | 80% |  | log P (second value after the slash) [3]: 3.18
 | Cc1cc(C#N)cc(C(=O)NC2CCN(C)C2=O)c1NC(=O)c1cc(Cn2nnc(C(F)(F)F)n2)nn1-c1ncccc1Cl (stereo not drawn) [Example 49] | 100% | 100% | 2.39 | 100% |  | log P (second value after the slash) [3]: 2.19
 | Cc1cc(Cl)cc(C(=O)NC2CCN(C)C2=O)c1NC(=O)c1cc(Cn2nnc(C(F)(F)F)n2)nn1-c1ncccc1Cl (stereo not drawn) [Example 50] | 100% | 100% | 2.66 | 100% |  | log P (second value after the slash) [3]: 2.36
2.95 | Cc1cc(C#N)cc(C(=O)NC2CCS(=O)(=O)C2)c1NC(=O)c1cc(Cn2nnc(C(F)(F)F)n2)nn1-c1c(Cl)cccc1Cl (stereo not drawn) [Example 54] |  | 100% |  |  | 100% | pest or weed control at 100 g/ha [4, 8]: 80%
 | Cc1cc(Cl)cc(C(=O)NC(C)C2CCCO2)c1NC(=O)c1cc(Cn2nnc(C(F)(F)F)n2)nn1-c1ncccc1Cl (stereo not drawn) [Example 62] | 100% | 100% | 3.45 | 100% |  | 
3.68 | Cc1cc(C#N)cc(C(=O)NCc2ccc(S(F)(F)(F)(F)F)cc2)c1NC(=O)c1cc(Cn2nnnc2C(F)(F)F)nn1-c1ncccc1Cl [Example 69] |  | 100% |  |  | 100% | pest or weed control at 0.02 mg (Boophilus microplus): 100%; pest or weed control at 100 ppm (Lucilia cuprina larvae; 100 ppm, after 48 days): 100%; pest or weed control at 20 ppm (adult Musca domestica): 80%
 | Cc1cc(C#N)cc(C(=O)NCc2ccccc2)c1NC(=O)c1cc(Cn2nnc(C(F)(F)F)n2)nn1-c1ncccc1Cl [Example 70] | 100% | 100% | 3.38 | 100% |  | 
 | Cc1cc(Cl)cc(C(=O)Nc2ccccc2)c1NC(=O)c1cc(Cn2nnc(C(F)(F)F)n2)nn1-c1ncccc1Cl [Example 72] | 100% | 100% | 3.81 | 80% |  | 
 | Cc1cc(Cl)cc(C(=O)NC(C)c2ccccc2F)c1NC(=O)c1cc(Cn2nnc(C(F)(F)F)n2)nn1-c1ncccc1Cl (stereo not drawn) [Example 87] | 100% | 100% | 3.98 | 80% |  | 
3.65 | Cc1cc(Cl)cc(C(=O)NCc2ccc([N+](=O)[O-])cc2)c1NC(=O)c1cc(Cn2nnc(C(F)(F)F)n2)nn1-c1ncccc1Cl [Example 97] |  | 100% |  |  | 100% | pest or weed control at 100 g/ha [4, 8]: 90%
 | Cc1cc(Cl)cc(C(=O)NCc2ccc(N)cc2)c1NC(=O)c1cc(Cn2nnc(C(F)(F)F)n2)nn1-c1ncccc1Cl [Example 140] | 100% | 100% | 2.55 | 100% |  | 
3.81 | Cc1cc(Cl)cc(C(=O)NCc2ccccc2OC(F)(F)F)c1NC(=O)c1cc(Cn2nnc(C(F)F)n2)nn1-c1ncccc1Cl [Example 150] |  | 100% |  |  | 100% | pest or weed control at 100 g/ha [4, 8]: 100%
3.78 | Cc1cc(Cl)cc(C(=O)NCc2ccc(OC(F)(F)F)cc2)c1NC(=O)c1cc(Cn2nnc(C(F)F)n2)nn1-c1ncccc1Cl [Example 151] |  | 100% |  |  | 100% | pest or weed control at 100 g/ha [4, 8]: 100%
3.87 | Cc1cc(Cl)cc(C(=O)NCc2ccc(OC(F)F)cc2)c1NC(=O)c1cc(Cn2nnc(C(F)(F)F)n2)nn1-c1ncccc1Cl [Example 152] |  | 100% |  |  | 100% | pest or weed control at 100 g/ha [4, 8]: 100%
3.89 | Cc1cc(C#N)cc(C(=O)NCc2ccccc2OC(F)(F)F)c1NC(=O)c1cc(Cn2nnc(C(F)(F)F)n2)nn1-c1ncccc1Cl [Example 153] |  | 100% |  |  | 100% | pest or weed control at 100 g/ha [4, 8]: 90%
4.3 | O=C(NCc1ccccc1OC(F)(F)F)c1cc(Br)cc(Cl)c1NC(=O)c1cc(Cn2nnc(C(F)(F)F)n2)nn1-c1ncccc1Cl [Example 193] |  | 100% |  |  | 100% | pest or weed control at 100 g/ha [4, 8]: 90%
3.9 | O=C(NCc1ccc(Cl)cc1)c1cc(Cl)cc(F)c1NC(=O)c1cc(Cn2nnc(C(F)(F)F)n2)nn1-c1ncccc1Cl [Example 206] |  | 100% |  |  | 100% | pest or weed control at 100 g/ha [4, 8]: 100%
 | Cc1cc(Cl)cc(C(=O)NCc2ccc(F)cn2)c1NC(=O)c1cc(Cn2nnc(C(F)(F)F)n2)nn1-c1ncccc1Cl [Example 224] | 100% | 100% | 3.24 | 90% |  | 
 | Cc1cc(Cl)cc(C(=O)NCc2ncc(F)cc2F)c1NC(=O)c1cc(Cn2nnc(C(F)(F)F)n2)nn1-c1ncccc1Cl [Example 231] | 100% | 100% | 3.5 | 90% |  | 
 | Cc1cc(Cl)cc(C(=O)NC(C)c2ccc(Cl)cn2)c1NC(=O)c1cc(Cn2nnc(C(F)(F)F)n2)nn1-c1ncccc1Cl (stereo not drawn) [Example 236] | 100% | 100% | 3.63 | 90% |  | 
